In brackets after ≈: the same amount, converted by molar mass. Where two headings read alike, the source gives them in different places.
Key:
[1] = system: S. aureus ATCC 29213; type: cell-based, Staphylococcus aureus
Procedure: (§1) Antibacterial activity against Gram positive and Gram negative microorganisms was investigated via broth macrodilution tests using CLSI methodology (Zhanel et al., 2008). Stock solutions of lipopeptide antibiotics in water were brought to a standard 512 μg/mL, with only βC12-KLLK and βC16-KAAK requiring a minute amount of DMSO. Organisms were subcultured and isolated on blood agar, suspended in 3 mL of Mueller-Hinton broth at the turbidity of a […], and diluted to approximately 10^5 CFU/mL before introduction into tubes containing serially diluted lipopeptide antibiotic in Mueller-Hinton broth. Activity testing against S. pneumoniae used broth supplemented with laked horse blood to give 5% horse blood in experimental tubes. The turbidity resulting from lipopeptide solution in broth required the creation of control tubes lacking microbes serving as turbidity controls. All tubes were incubated overnight for 16-20 h at 37° C. Colony counts of diluted 10^5 CFU/mL solution of microorganism confirmed the validity of the trial with colony counts expected in the 10^5 CFU/mL range and also incubated overnight in a CO2 incubator at 37° C. and 5% CO2.

[2] = system: S. epidermidis ATCC 14990; type: cell-based, Staphylococcus epidermidis
Procedure: as §1

[3] = system: E. coli (Amikacin MIC 32 μg/mL) CAN-ICU 63074; type: cell-based
Procedure: as §1

[4] = system: E. coli (Gentamicin resistant-Gent R) CAN-ICU 61714; type: cell-based
Procedure: as §1

[5] = system: E. coli ATCC 25922; type: cell-based
Procedure: as §1

[6] = system: methicillin-resistant Staphylococcus aureus (MRSA) ATCC 33592; type: cell-based
Procedure: as §1

[7] = system: methicillin-resistant Staphylococcus epidermidis (MRSE) CAN-ICU 61589; type: cell-based
Procedure: as §1

[8] = system: E. faecalis ATCC 29212; type: cell-based, Enterococcus faecalis
Procedure: as §1

[9] = system: E. faecium ATCC 27270; type: cell-based, Enterococcus faecium
Procedure: as §1

[10] = system: S. pneumoniae ATCC 49619; type: cell-based, Streptococcus pneumoniae
Procedure: as §1

[11] = system: P. aeruginosa (Gent-R) CAN-ICU 62308; type: cell-based, Pseudomonas aeruginosa
Procedure: as §1

[12] = system: P. aeruginosa ATCC 27853; type: cell-based, Pseudomonas aeruginosa
Procedure: as §1

[13] = system: S. maltophilia CAN-ICU 62584; type: cell-based, Stenotrophomonas maltophilia
Procedure: as §1

[14] = system: A. baumannii CAN-ICU 63169; type: cell-based, Acinetobacter baumannii
Procedure: as §1

[15] = system: E. coli (Amikacin MIC 32 μg/mL) CAN-ICU 63074; conditions: strain description, clinical isolate of CAN-ICU study; cited from earlier work
[16] = system: methicillin-resistant Staphylococcus epidermidis (MRSE) CAN-ICU 61589; conditions: strain description, clinical isolate of CAN-ICU study; cited from earlier work
[17] = system: K. pneumoniae ATCC 13883; type: cell-based, Klebsiella pneumoniae; conditions: Mueller-Hinton broth, 16-20 h at 37° C.
Procedure: as §1

[18] = Amikacin MIC 32 μg/mL) CAN-ICU 63074
[19] = Gentamicin resistant-Gent R) CAN-ICU 61714
[20] = methicillin-resistant CAN-ICU 61589
[21] = Mueller-Hinton broth, 16-20 h at 37° C.

| Molecule | MIC, S. aureus ATCC29213 ([1]; ATCC 29213) [mg/L] | MIC, S. epidermidis ATCC14990 ([2]; ATCC 14990) [mg/L] | MIC, E. coli CAN-ICU 63074 [3, 18] [mg/L] | MIC, E. coli CAN-ICU 61714 [4, 19] [mg/L] | MIC, E. coli ATCC25922 ([5]; ATCC 25922) [mg/L] | MIC, MRSA ATCC33592 ([6]; ATCC 33592) [mg/L] | MIC, MRSE CAN-ICU 61589 [7, 20] [mg/L] | MIC, E. faecalis ATCC29212 [8] [mg/L] | MIC, E. facium ATCC27270 [9] [mg/L] | MIC, S. pneumoniae ATCC49619 ([10]; ATCC 49619) [mg/L] | MIC, P. aeruginosa CAN-ICU 62308 ([11]; Gent-R) CAN-ICU 62308) [mg/L] | MIC, P. aeruginosa ATCC27853 ([12]; ATCC 27853) [mg/L] | MIC, S. maltophilia CAN-ICU 62584 ([13]; CAN-ICU 62584) [mg/L] | MIC, A. baumannii CAN-ICU 63169 ([14]; CAN-ICU 63169) [mg/L] | other results |
| --- | --- | --- | --- | --- | --- | --- | --- | --- | --- | --- | --- | --- | --- | --- | --- |
| CCCCCCCCCCCC(=O)N[C@@H](CCCCN)CC(=O)N[C@H](CC(=O)N[C@H](CC(=O)N[C@@H](CCCCN)CC(N)=O)CC(C)C)CC(C)C [(β)C12-KLLK] | 32 (≈ 43.4 µM) | 16 (≈ 21.7 µM) | 64 (≈ 86.7 µM) | 64 (≈ 86.7 µM) | 64 (≈ 86.7 µM) | 32 (≈ 43.4 µM) | 32 (≈ 43.4 µM) | 64 (≈ 86.7 µM) | 32 (≈ 43.4 µM) | 128 (≈ 173 µM) | 128 (≈ 173 µM) | 128 (≈ 173 µM) | 256 (≈ 347 µM) | >128 |  |
| CCCCCCCCCCCCCCCC(=O)N[C@@H](CCCCN)CC(=O)N[C@@H](C)CC(=O)N[C@@H](C)CC(=O)N[C@@H](CCCCN)CC(N)=O [(β)C16-KAAK] | 64 (≈ 90.1 µM) | 8 (≈ 11.3 µM) | 64 (≈ 90.1 µM) | 64 (≈ 90.1 µM) | 64 (≈ 90.1 µM) | 32 (≈ 45.1 µM) | 16 (≈ 22.5 µM) | 32 (≈ 45.1 µM) | 32 (≈ 45.1 µM) | >64 | 128 (≈ 180 µM) | 256 (≈ 361 µM) | >128 | 256 (≈ 361 µM) |  |
| CCCCCCCCCCCCCCCC(=O)N[C@@H](CCCCN)CC(=O)NCCC(=O)NCCC(=O)N[C@@H](CCCCN)CC(N)=O [(β)C16-KGGK] | 16 (≈ 23.5 µM) | 8 (≈ 11.7 µM) | 32 (≈ 46.9 µM) | 32 (≈ 46.9 µM) | 32 (≈ 46.9 µM) | 32 (≈ 46.9 µM) | 16 (≈ 23.5 µM) | 32 (≈ 46.9 µM) | 32 (≈ 46.9 µM) | 128 (≈ 188 µM) | >64 | 64 (≈ 93.8 µM) | 256 (≈ 375 µM) | 128 (≈ 188 µM) |  |
| CCCCCCCCCCCCCCCC(=O)N[C@@H](CCCCN)CC(=O)N[C@@H](CCCCN)CC(=O)N[C@@H](CCCCN)CC(=O)N[C@@H](CCCCN)CC(N)=O [(β)C16-KKKK] | 16 (≈ 19.4 µM) | 4 (≈ 4.85 µM) | 32 (≈ 38.8 µM) | 32 (≈ 38.8 µM) | 16 (≈ 19.4 µM) | 16 (≈ 19.4 µM) | 4 (≈ 4.85 µM) | 32 (≈ 38.8 µM) | 16 (≈ 19.4 µM) | 128 (≈ 155 µM) | 128 (≈ 155 µM) | 64 (≈ 77.6 µM) | 256 (≈ 311 µM) | 256 (≈ 311 µM) |  |
| NCC[C@H](O)C(=O)N[C@@H]1C[C@H](N)[C@@H](O[C@H]2O[C@H](CN)[C@@H](O)[C@H](O)[C@H]2O)[C@H](O)[C@H]1O[C@H]1O[C@H](CO)[C@@H](O)[C@H](N)[C@H]1O [Amikacin] |  |  |  |  |  |  |  |  |  |  |  |  |  |  | Amikacin MIC of E. coli CAN-ICU 63074 [15]: 32 mg/L |
| Cc1nnc(SCC2=C(C(=O)O)N3C(=O)[C@@H](NC(=O)Cn4cnnn4)[C@H]3SC2)s1 [Cefazolin] |  |  |  |  |  |  |  |  |  |  |  |  |  |  | Cefazolin-CZ MIC of MRSE CAN-ICU 61589 [16]: > 32 mg/L |
| Gentamicin [reference compound] |  |  |  |  |  |  |  |  |  |  |  |  |  |  | MIC, S. aureus ATCC29213 [1, 21]: 1 mg/L; MIC, S. epidermidis ATCC14990 [2, 21]: 0.25 mg/L; MIC, E. coli CAN-ICU 63074 [3, 21]: 8 mg/L; MIC, E. coli CAN-ICU 61714 ([4]; Gentamicin resistant strain, Mueller-Hinton broth, 16-20 h at 37° C.): 128 mg/L; MIC, E. coli ATCC25922 [5, 21]: 1 mg/L; MIC, MRSA ATCC33592 [6, 21]: 2 mg/L; MIC, MRSE CAN-ICU 61589 [7, 21]: 32 mg/L; MIC, S. pneumoniae ATCC49619 ([10]; broth supplemented with laked horse blood (5% horse blood), 16-20 h at 37° C.): 4 mg/L; MIC, P. aeruginosa CAN-ICU 62308 ([11]; Gent-R strain, Mueller-Hinton broth, 16-20 h at 37° C.): 128 mg/L; MIC, P. aeruginosa ATCC27853 [12, 21]: 8 mg/L; MIC, S. maltophilia CAN-ICU 62584 [13, 21]: >512 mg/L; MIC, A. baumannii CAN-ICU 63169 [14, 21]: 128 mg/L; MIC, S. pneumoniae ATCC13883 [17]: 0.25 mg/L |

Reference: patent US20120115774A1, “ANTIMICROBIAL CATIONIC LIPO-BETA-PEPTIDES” (UNIVERSITY OF MANITOBA, priority 2009, published 2012)
